Entries after “also recorded” stand apart in the source; their conditions may differ. Ends that are not written are not given here.
T1: soluble form of SEP (Mus musculus, UniProt Q9JLI3)
T1 construct: partially purified the soluble form of SEP from the conditioned medium of CHO/SEP cells; made in house; host or cells: CHO-K1 cells, transient transfection; conditioned medium partially purified on a wheat germ lectin column
T1 sequence (Q9JLI3 63-765 limits assumed): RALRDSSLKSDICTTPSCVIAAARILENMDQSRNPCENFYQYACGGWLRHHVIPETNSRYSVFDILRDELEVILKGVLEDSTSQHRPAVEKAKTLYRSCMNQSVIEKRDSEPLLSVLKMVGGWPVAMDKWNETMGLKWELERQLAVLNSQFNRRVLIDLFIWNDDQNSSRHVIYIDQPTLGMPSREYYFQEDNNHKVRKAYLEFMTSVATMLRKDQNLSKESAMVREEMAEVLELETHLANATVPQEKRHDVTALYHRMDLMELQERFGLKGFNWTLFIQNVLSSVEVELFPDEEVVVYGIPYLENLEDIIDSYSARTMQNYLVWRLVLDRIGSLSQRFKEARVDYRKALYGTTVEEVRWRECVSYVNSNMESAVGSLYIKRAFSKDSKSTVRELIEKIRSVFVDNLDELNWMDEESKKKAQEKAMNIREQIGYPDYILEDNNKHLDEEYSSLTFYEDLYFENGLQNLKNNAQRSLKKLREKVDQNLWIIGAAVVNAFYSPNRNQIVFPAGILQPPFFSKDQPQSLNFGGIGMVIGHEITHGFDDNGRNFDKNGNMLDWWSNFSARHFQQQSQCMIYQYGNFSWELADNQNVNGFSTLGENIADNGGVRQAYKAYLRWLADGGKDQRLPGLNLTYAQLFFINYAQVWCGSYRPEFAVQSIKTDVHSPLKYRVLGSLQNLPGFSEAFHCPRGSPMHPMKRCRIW

T2: substance P, P20366
T2 chain: RPKPQQFFGLM

T3: synthetic human big ET-1 (1-38), P05305
T3 chain: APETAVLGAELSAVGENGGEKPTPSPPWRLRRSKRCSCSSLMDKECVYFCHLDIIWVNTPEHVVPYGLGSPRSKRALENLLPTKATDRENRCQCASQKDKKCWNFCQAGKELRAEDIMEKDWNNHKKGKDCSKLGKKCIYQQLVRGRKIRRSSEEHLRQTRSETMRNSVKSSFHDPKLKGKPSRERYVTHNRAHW

T4: synthetic human ET-1 (1-21), P05305
T4 chain: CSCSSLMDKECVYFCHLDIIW

B1: soluble form of SEP (soluble secreted endopeptidase), partially purified from the conditioned medium of CHO/SEP cells (protein)
chain: RALRDSSLKSDICTTPSCVIAAARILENMDQSRNPCENFYQYACGGWLRHHVIPETNSRYSVFDILRDELEVILKGVLEDSTSQHRPAVEKAKTLYRSCMNQSVIEKRDSEPLLSVLKMVGGWPVALDKWNETMGLKWELERQLAVLNSQFNRRVLIDLFIWNDDQNSSRHVIYIDQPTLGMPSREYYFQEDNNHKVRKAYPEFMTSVATMLRKDQNLSKESAMVREEMAEVLELETHLANATVPQEKRHDVTALYHRMDLMELQERFGLKGFNWTLFIQNVLSSVEVELFPDEEVVVYGIPYLENLEDIIDSYSARTMQNYLVWRLVLDRIGSLSQRFKEARVDYRKALYGTTVEEVRWRECVSYVNSNMESAVGSLYIKRAFSKDSKSTVRELIEKIRSVFVDNLDELNWMDEESKKKAQEKAMNIREQIGYPDYILEDNNKHLDEEYSSLTFYEDLYFENGLQNLKNNAQRSLKKLREKVDQNLWIIGAAVVNAFYSPNRNQIVFPAGILQPPFFSKDQPQSLNFGGIGMVIGHEITHGFDDNGRNFDKNGNMLDWWSNFSARHFQQQSQCMIYQYGNFSWELADNQNVNGFSSLGENIADNGGVRQAYKAYLRWLADGGKDQRLPGLNLTYAQLFFINYAQVWCGSYRPEFAVQSIKTDVHSPLKYRVLGSLQNLPGFSEAFHCPRGSPMHPMKRCRIW

Tests used:
soluble form of SEP [1] = molecular target: T1, soluble form of SEP; assay: Inhibition of ET-1 degrading activity of recombinant soluble SEP; type: biochemical; settings: for SEP activity: Inhibitor 100 μM, SEP partially purified from conditioned medium of CHO/SEP cells, no inhibitor = 100, unit assumed; for inhibition of SEP activity (in words) / IC50: soluble form of SEP; for inhibition of SEP activity (in words): in vitro; for IC50: ET-1 degrading activity, dose-dependent, read-out: apparent IC50, inhibition of SEP activity
Experimental: (§1) Double transfection of prepro-ET-1and ECE-1a, SEP, or SEP^Δ was performed using LipofectAMINE (Life Technologies, Inc.). Twelve hours after transfection, cells were refed with fresh medium. […] For in vitro enzymological charactenization, an SEP expression construct was transiently transfected into CHO-K1 cells. The medium was conditioned for 48 h in CHO-SFM II (Life Technologies, Inc.) and was subjected to a wheat germ lectin column (1×1 ml HiTrap wheat germ lectin; Amersham Pharmacia Biotech) equilibrated with 20 mM Tris-Cl (pH 7.4) and 0.5M NaCl. The column was washed and eluted with the same buffer containing 0.5M N-acetylglucosamine. The active fraction was subsequently subjected to a Centriprep concentrator (Amicon).
(§2) Reaction mixtures for enzyme assay (100 μl) contained 0.1 M MES-NaOH(pH 7.4), 0.5 μM peptide, and an enzyme fraction. For some experiments, the reactions were preincubated at 37° C. with various protease inhibitors for 15 min prior to the addition of the peptide. The reactions were incubated at 37° C. for 1-12 h in siliconized 0.5-ml microcentrifuge tubes. The enzyme reaction was terminated by adding 1 μl of 10 mM EDTA. The mixture was then injected into a C18 reverse-phase high pressure liquid chromatography (HPLC) column (μRPC C2/C18, ST4.6/100; Amersham Pharmacia Biotech) that was equilibrated with 10% (v/v) acetonitrile and 0.1% (v/v) trifluoroacetic acid. The column was eluted at a flow rate of 1 ml/min with a 10-80% linear gradient of acetonitrile and 0.1% trifluoroacetic acid over 43 min, followed by a 100% acetonitrile for an additional 3 min. Peptides were detected by absorbance at 220 nm.
The present inventors next assessed the enzymological properties of cloned SEP by using its ET-1 degrading activity.

soluble form of SEP [2] = molecular target: T1, soluble form of SEP; assay: SEP-catalyzed hydrolysis of bioactive peptides monitored by HPLC; type: biochemical; settings: by recombinant soluble SEP, substrate peak area vs control
Experimental: as §1, with “CHO-K1 cells were cultured [Emoto, N. et al., J. Biol. Chem., 274:1509-1518(1999)]. Double” for “Double”
as §2
Previously, the present inventors have shown that ECE-1 cleaves the Trp^21-Val^22 bond of big ET-1 (1-38) to produce mature ET-1(1-21) and the C-terminal half of big ET-1(22-38) without further cleaving other parts of big ET-1 or ET-1 [Xu, D. et al., Cell, 78:473-485(1994)]. To examine the cleavage site(s) of big ET-1 and mature ET-1 by recombinant SEP in an […] assay, the present inventors partially purified the soluble form of SEP from the conditioned medium of CHO/SEP cells. The present inventors then incubated relatively large amounts of big ET-1 (10 μM) and ET-1 (1.5 μM) with partially purified SEP for a prolonged period of time (12 h) while directly monitoring the cleavage by reverse-phase HPLC. Product peaks were collected, and the peptides were identified by mass spectrometry. Big ET-1 (1-38) was hydrolyzed to a significant degree (42%) by the soluble form of SEP, and HPLC resolved at least four distinct product peaks (FIG. 7B). Two peptides products (FIG. 7C, peaks 1 and 4) were co-eluted with the standards of big ET-1 (22-38) and mature ET-1 (1-21), respectively. Analysis using mass spectrometry confirmed that they were big ET-1 (22-38) and mature ET-1(1-2 1), with an m/z value for (M+H)^+ of 1810 and 2493, respectively. These finding indicate that the soluble form of SEP can produce ET-1 by cleaving at the specific Trp^21-Val^22 site of big ET-1. On the other hand, it appears that ET-1 is further digested by the soluble form of SEP. […] These two major peaks (FIG. 7D, peaks 1 and 2) from mature ET-1 were co-eluted with the peaks (FIG. […], peaks 2 and 3, respectively) produced from big ET-1 hydrolysis. Using molecular masses, one peptide product (FIG. 7; C, peak 3, and D, peak 2) was identified as ET-1 (1-16). Another peptide product (FIG. 7; C, peak 2, and D, peak 1) appeared to be the two-chain ET-1 (1-16), which is held together by two disulfide bonds between Cys^1 and Cys^15 and between Cys^3 and Cys^11, presumably produced by cleavage at one site between Ser^4 and Glu^10 of ET-1 (1-16).
Finally, the present inventors examined the SEP-catalyzed hydrolysis of other bioactive peptides that have been characterized as substrates of ECE-1 and/or NEP. […]

ECE-1 and ECE-2 = settings: ECE-1 vs ECE-2; cited from earlier work
[3] = molecular target: atrial natriuretic peptide
substance P, P20366 = molecular target: T2, substance P, P20366
[4] = molecular target: T3, synthetic human big ET-1 (1-38), P05305
[5] = molecular target: T4, synthetic human ET-1 (1-21), P05305

Chain of angiotensin I, P01019 (P01019 whole entry, looked up): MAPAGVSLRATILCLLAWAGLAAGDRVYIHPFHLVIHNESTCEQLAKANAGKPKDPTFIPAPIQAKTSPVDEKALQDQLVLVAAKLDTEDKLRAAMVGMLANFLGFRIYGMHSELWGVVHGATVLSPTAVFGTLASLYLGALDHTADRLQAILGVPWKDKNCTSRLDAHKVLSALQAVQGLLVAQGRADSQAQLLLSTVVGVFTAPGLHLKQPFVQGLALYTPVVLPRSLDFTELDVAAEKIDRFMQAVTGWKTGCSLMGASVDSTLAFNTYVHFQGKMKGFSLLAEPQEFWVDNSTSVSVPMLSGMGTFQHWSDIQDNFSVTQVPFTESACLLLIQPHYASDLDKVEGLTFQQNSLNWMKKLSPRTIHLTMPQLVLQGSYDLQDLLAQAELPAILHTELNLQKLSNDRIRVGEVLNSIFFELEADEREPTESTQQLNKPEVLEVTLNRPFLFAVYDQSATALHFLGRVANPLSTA
Chain of bradykinin, P01042 (P01042 whole entry, looked up): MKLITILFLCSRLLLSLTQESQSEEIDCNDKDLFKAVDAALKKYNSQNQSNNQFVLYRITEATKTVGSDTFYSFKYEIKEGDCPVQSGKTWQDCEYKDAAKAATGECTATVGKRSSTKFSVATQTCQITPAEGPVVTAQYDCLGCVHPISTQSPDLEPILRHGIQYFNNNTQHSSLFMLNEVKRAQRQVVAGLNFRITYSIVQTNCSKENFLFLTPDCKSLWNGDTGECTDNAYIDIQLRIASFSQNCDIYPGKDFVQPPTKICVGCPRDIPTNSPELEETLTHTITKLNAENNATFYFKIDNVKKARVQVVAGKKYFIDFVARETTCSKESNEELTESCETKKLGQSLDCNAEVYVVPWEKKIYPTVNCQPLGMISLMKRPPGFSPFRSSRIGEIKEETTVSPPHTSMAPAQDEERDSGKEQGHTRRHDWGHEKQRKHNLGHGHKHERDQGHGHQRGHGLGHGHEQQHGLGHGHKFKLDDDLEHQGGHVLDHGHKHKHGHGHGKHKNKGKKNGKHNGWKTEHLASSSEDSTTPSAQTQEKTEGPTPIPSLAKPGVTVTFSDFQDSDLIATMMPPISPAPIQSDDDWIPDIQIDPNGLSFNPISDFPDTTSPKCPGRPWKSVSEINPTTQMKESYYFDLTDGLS

Molecule	SEP activity (soluble form of SEP [1])	inhibition of SEP activity (in words) (soluble form of SEP [1])	Hydrolysis (%) (soluble form of SEP [2])	other results
c1cnc2c(c1)ccc1cccnc12 [1,10-Phenanthroline, 1,10-phenanthroline]	1%	inhibited	–	–
CC[C@H](C)[C@@H]1NC(=O)[C@H](CCCNC(=N)N)NC(=O)[C@H](CC(=O)O)NC(=O)[C@H](CCSC)NC(=O)[C@H](CCCNC(=N)N)NC(=O)CNC(=O)CNC(=O)[C@H](Cc2ccccc2)NC(=O)[C@@H](NC(=O)[C@H](CO)NC(=O)[C@H](CO)NC(=O)[C@H](CCCNC(=N)N)NC(=O)[C@H](CCCNC(=N)N)NC(=O)[C@H](CC(C)C)NC(=O)[C@@H](N)CO)CSSC[C@@H](C(=O)N[C@@H](CC(N)=O)C(=O)N[C@@H](CO)C(=O)N[C@@H](Cc2ccccc2)C(=O)N[C@@H](CCCNC(=N)N)C(=O)N[C@@H](Cc2ccc(O)cc2)C(=O)O)NC(=O)CNC(=O)[C@H](CC(C)C)NC(=O)CNC(=O)[C@H](CO)NC(=O)[C@H](CCC(N)=O)NC(=O)[C@H](C)NC(=O)CNC1=O [Atrial Natriuretic peptide]	–	–	>95%	–
C[C@H](CS)C(=O)N1CCC[C@H]1C(=O)O [Captopril, captopril]	103%	not inhibited	–	–
COc1c2c(c(O)c3c1C(O)Cc1cc(CC(C)O)c(C(=O)O)c(O)c1-3)C(=O)c1cccc(O)c1C2=O (stereo not shown) [FR901533]	38%	not completely; also recorded: only partially inhibited	–	–
CC(C)C[C@H](NP(=O)(O)O[C@@H]1O[C@@H](C)[C@H](O)[C@@H](O)[C@H]1O)C(=O)N[C@@H](Cc1c[nH]c2ccccc12)C(=O)O [Phosphoramidon]	8%	inhibited	–	sensitivity of ECE-1 to phosphoramidon lower than that of ECE-2 (ECE-1 and ECE-2): 250 fold; IC50 (soluble form of SEP [1]): ~6 nM
O=C(O)CNC(=O)C(CS)Cc1ccccc1 (stereo not shown) [Thiorphan]	2%	efficiently inhibited	–	IC50 (soluble form of SEP [1]): ~2000 nM
Angiotensin I: bioactive peptide substrate from American Peptides (DRVYIHPFHL)	–	–	>95%	–
Big endothelin-1: synthetic human big ET-1, inactive ET precursor (CSCSSLMDKECVYFCHLDIIWVNTPEHVVPYGLGSPRS; ends and bridges not checked; cysteine pairing not given here; UniProt P05305 53-90, looked up)	–	–	42%	–
Endothelin-1: human ET-1, mature endothelin peptide	–	–	92%	–
RPPGFSPFR [Bradykinin]	–	–	>95%	–
Substance P: bioactive peptide substrate from American Peptides	–	–	>95%	–
B1	–	–	–	Hydrolysis (%) [3]: > 95%; Hydrolysis (%) (angiotensin I, P01019): > 95%; Hydrolysis (%) (substance P, P20366): > 95%; Hydrolysis (%) (bradykinin, P01042): > 95%; Hydrolysis (%) [4]: 42%; Hydrolysis (%) [5]: 92%
